The values below come from ChEMBL document CHEMBL5143747, “Discovery and Optimization of Triazolopyrimidinone Derivatives as Selective NLRP3 Inflammasome Inhibitors” (ACS Med Chem Lett, 2022).

Data set [1] concerns the target T1, NACHT, LRR and PYD domains-containing protein 3 (Homo sapiens, UniProt Q96P20). Description: Inhibition of NLRP3 inflammasome in LPS-pretreated PBMC (unknown origin) assessed as reduction in IL-1beta release pretreated for 30 mins followed by ATP stimulated and measured after 1 hr by ELISA. The class given is cell-based. Background: In an ELISA, binding on a coated surface is turned into a signal by an enzyme label.

For data set [2], the target named is T1, NACHT, LRR and PYD domains-containing protein 3. Put plainly: Inhibition of NLRP3 inflammasome in LPS-pretreated human whole blood assessed as reduction in IL-1beta release pretreated for 30 mins followed by ATP stimulated and measured after 1 hr by HTRF assay. The class given is tissue-based.
A short description of data set [3]: Inhibition of LPS-stimulated TNF-alpha release in human PBMC measured after 4 hrs by ELISA. Type of data set: toxicity, cell-based.
A short description of data set [4]: Inhibition of LPS-stimulated IL-6 release in human PBMC measured after 4 hrs by ELISA. The class given is toxicity, cell-based.
Data set [5] has as its target T1, NACHT, LRR and PYD domains-containing protein 3. Description: Inhibition of NLRP3 inflammasome in LPS-pretreated human THP1-ASC-GFP cells assessed as reduction in speck positive cells measured after 30 mins in presence of caspase inhibitor zVAD-FMK by Hoechst 33342 staining based confocal microscopy. Type of data set: cell-based.
Data set [6] in a line: Permeability of compound in pH 7.4 phosphate buffered saline at 10 uM measured after 4 hrs by PAMPA. Conditions: read-out: permeability. The class given is ADME. (PAMPA measures passive passage across an artificial lipid membrane.)
Data set [7] is described as follows: Protein binding in human plasma. The class given is ADME, cell-free. Conditions: read-out: PPB (converted).
Data set [8] is described as follows: Protein binding in mouse plasma. The class given is ADME, cell-free. The conditions noted are these: read-out: PPB (converted).
A short description of data set [9]: Thermodynamic solubility of compound in pH 7.4 phosphate buffer incubated for 24 hrs under shaking condition by UPLC analysis. The class given is physicochemical. The conditions noted are these: read-out: Therm_solubility.
Data set [10] is described as follows: Protein binding in rat plasma. The class given is ADME, cell-free. The conditions noted are these: read-out: PPB (converted).
For data set [11], the target named is T1, NACHT, LRR and PYD domains-containing protein 3. Put plainly: Inhibition of NLRP3 inflammasome in LPS-pretreated PBMC (unknown origin) assessed as reduction in IL-1beta release at 40 uM pretreated for 30 mins followed by ATP stimulated and measured after 1 hr by ELISA relative to control. Type of data set: cell-based. Conditions: time 90.0 min.

Converted amounts (≈) assume the structure as drawn. Bounds are passed on as bounds.

T1 sequence (Q96P20 whole entry, the tested form may be a part): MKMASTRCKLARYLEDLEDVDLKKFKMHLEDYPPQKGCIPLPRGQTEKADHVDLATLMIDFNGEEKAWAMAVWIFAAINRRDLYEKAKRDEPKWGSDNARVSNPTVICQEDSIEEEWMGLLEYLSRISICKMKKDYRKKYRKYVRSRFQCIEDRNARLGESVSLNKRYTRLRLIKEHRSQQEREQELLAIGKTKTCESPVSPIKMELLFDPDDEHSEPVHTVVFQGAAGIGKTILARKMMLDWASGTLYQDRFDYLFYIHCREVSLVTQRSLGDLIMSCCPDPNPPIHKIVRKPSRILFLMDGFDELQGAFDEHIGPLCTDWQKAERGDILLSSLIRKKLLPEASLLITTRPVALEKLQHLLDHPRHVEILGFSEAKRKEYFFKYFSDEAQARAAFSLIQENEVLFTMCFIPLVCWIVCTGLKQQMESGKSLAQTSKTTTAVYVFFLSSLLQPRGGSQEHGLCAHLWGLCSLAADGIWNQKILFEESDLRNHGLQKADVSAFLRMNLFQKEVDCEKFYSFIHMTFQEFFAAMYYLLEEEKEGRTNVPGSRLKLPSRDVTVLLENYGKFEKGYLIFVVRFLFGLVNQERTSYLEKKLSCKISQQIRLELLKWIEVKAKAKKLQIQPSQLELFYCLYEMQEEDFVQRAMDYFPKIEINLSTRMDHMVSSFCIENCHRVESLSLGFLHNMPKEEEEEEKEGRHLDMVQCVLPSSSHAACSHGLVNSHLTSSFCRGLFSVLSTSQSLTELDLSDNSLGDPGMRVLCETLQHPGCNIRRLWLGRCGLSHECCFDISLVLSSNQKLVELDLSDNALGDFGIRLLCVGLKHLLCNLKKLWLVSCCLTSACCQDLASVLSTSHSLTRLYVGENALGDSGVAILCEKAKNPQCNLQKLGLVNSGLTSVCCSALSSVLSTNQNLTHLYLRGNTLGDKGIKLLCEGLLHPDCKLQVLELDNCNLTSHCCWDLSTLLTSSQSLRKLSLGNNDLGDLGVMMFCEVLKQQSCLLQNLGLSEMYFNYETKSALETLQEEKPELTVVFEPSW

Broadly, the IC50 is the point on the concentration scale where inhibition reaches its midpoint. On to `N#Cc1cccc(Cc2cc(=O)n3nc(Nc4c5c(cc6c4CCC6)CCC5)nc3[nH]2)c1`, for which, in data set [1] (read-out: IC50), the IC50 was 2.4 µM.
On to `O=c1cc(CC2CCCCO2)[nH]c2nc(Nc3c4c(cc5c3CCC5)CCC4)nn12` (stereo not drawn), for which the IC50 is more than 40 µM in data set [2]; 1.9 µM in [1] (read-out: IC50); more than 40 µM in [3]; more than 40 µM in data set [4]; 1.3 µM in data set [5]. Further, in data set [6], the Papp at 4 h, 10 µM stood at 0.038 ×10⁻⁶ cm/s. For the same molecule, the fraction unbound in data set [7] was 0.001; in data set [8] it was 0.002. In addition, the solubility thermodynamic at 24 h in data set [9] was 24 µM (≈ 9.73 µg/mL).
`Cn1ccc(Cc2cc(=O)n3nc(Nc4c5c(cc6c4CCC6)CCC5)nc3[nH]2)n1`: the IC50 in data set [1] (read-out: IC50) amounted to 1.8 µM.
On the same count and under the same terms, as for `CN1CCOC(Cc2cc(=O)n3nc(Nc4c5c(cc6c4CCC6)CCC5)nc3[nH]2)C1` (stereo not drawn), the figure is 8.8 µM.
On the same count and under the same terms, as for `O=c1cc(C2CCNCC2)[nH]c2nc(Nc3c4c(cc5c3CCC5)CCC4)nn12`, the figure is more than 40 µM.
Regarding `S=c1cc(Cc2ccccn2)[nH]c2nc(Nc3c4c(cc5c3CCC5)CCC4)nn12`, the IC50 in [3] and in [4] was more than 40 µM each time. Besides, in [6], the Papp at 4 h, 10 µM is less than 0.018 ×10⁻⁶ cm/s. Also, the results for the fraction unbound in data set [7], in data set [8] and in [10] were 0.019, 0.004 and 0.015, respectively. Further, in data set [9], the solubility thermodynamic at 24 h was 1500 µM (≈ 622 µg/mL).
Consider `O=c1cc(Cc2ccccc2F)[nH]c2nc(Nc3c4c(cc5c3CCC5)CCC4)nn12`, for which the IC50 in data set [1] (read-out: IC50) came out at 3.7 µM.
In the case of `CN1CCCC(c2cc(=O)n3nc(Nc4c5c(cc6c4CCC6)CCC5)nc3[nH]2)C1` (stereo not drawn), the IC50 in [1] (read-out: IC50) is 4.9 µM.
Still for that read-out and setting: as for `Cc1ccccc1Cc1cc(=O)n2nc(Nc3c4c(cc5c3CCC5)CCC4)nc2[nH]1`, the figure is 4 µM; as for `Cn1cnc(Cc2cc(=O)n3nc(Nc4c5c(cc6c4CCC6)CCC5)nc3[nH]2)c1`, 5.5 µM.
Same read-out and setting: in the case of `O=c1cc(C2CCOCC2)[nH]c2nc(Nc3c4c(cc5c3CCC5)CCC4)nn12` it was 6.3 µM; in that of `O=c1cc(CN2CCOCC2)[nH]c2nc(Nc3c4c(cc5c3CCC5)CCC4)nn12`, 7.8 µM; in that of `O=c1cc(CC2CCCCC2)[nH]c2nc(Nc3c4c(cc5c3CCC5)CCC4)nn12`, 4.5 µM.
As a reminder, the inhibition is the change of the read-out against control, counted positive when it falls. On to `Cc1cc(=O)n2nc(Nc3c4c(cc5c3CCC5)CCC4)cc2[nH]1`, for which, in data set [11], the inhibition stood at 57%.
Take `N#Cc1ccc(Cc2cc(=O)n3nc(Nc4c5c(cc6c4CCC6)CCC5)nc3[nH]2)cc1`: the IC50 in [1] (read-out: IC50) turned out to be 1.6 µM.
Regarding `S=c1cc(CC2CCCCO2)[nH]c2nc(Nc3c4c(cc5c3CCC5)CCC4)nn12` (stereo not drawn), the IC50 in data set [3] and in [4] was more than 20 µM in each case. Moreover, the Papp at 4 h, 10 µM in data set [6] is less than 0.0004 ×10⁻⁶ cm/s. In addition, the fraction unbound in data set [7] is 0.001; in [8] it was 0.004; in [10] it was 0.002. Moreover, the solubility thermodynamic at 24 h in [9] is 730 µM (≈ 308 µg/mL).
On to `Cn1cncc1Cc1cc(=O)n2nc(Nc3c4c(cc5c3CCC5)CCC4)nc2[nH]1`, for which the IC50 in data set [1] (read-out: IC50) worked out at 16 µM.
On the same count and under the same terms, in the case of `Cn1nccc1Cc1cc(=O)n2nc(Nc3c4c(cc5c3CCC5)CCC4)nc2[nH]1` it was 2 µM.
Still for that read-out and setting: as for `Cc1cc2[nH]c(Nc3c4c(cc5c3CCC5)CCC4)nn2c(=O)n1`, the figure is more than 40 µM.
In the case of `Cc1[nH]c2nc(Nc3c4c(cc5c3CCC5)CCC4)nn2c(=O)c1C`, the IC50 in [1] (read-out: IC50) is more than 40 µM.
`O=c1cc(CC2COCCN2)[nH]c2nc(Nc3c4c(cc5c3CCC5)CCC4)nn12` (stereo not drawn): in data set [1] (read-out: IC50), the IC50 is 5.4 µM.
For the molecule `CCc1cc(=O)n2nc(Nc3c4c(cc5c3CCC5)CCC4)nc2[nH]1`, the IC50 in data set [1] (read-out: IC50) was 8.7 µM.
Same read-out and setting: as for `Cn1cc(Cc2cc(=O)n3nc(Nc4c5c(cc6c4CCC6)CCC5)nc3[nH]2)cn1`, the figure is 4.9 µM; as for `O=c1cc(CCc2ccccc2)[nH]c2nc(Nc3c4c(cc5c3CCC5)CCC4)nn12`, 3.4 µM; as for `Cc1[nH]c2nc(Nc3c4c(cc5c3CCC5)CCC4)nn2c(=O)c1C#N`, more than 40 µM.
As to `O=c1cc(Cc2cccnc2)[nH]c2nc(Nc3c4c(cc5c3CCC5)CCC4)nn12`, in data set [1] (read-out: IC50), the IC50 was 3.4 µM.
Still for that read-out and setting: as for `COc1c(C)[nH]c2nc(Nc3c4c(cc5c3CCC5)CCC4)nn2c1=O`, the figure is more than 40 µM; as for `O=c1cc(Cc2ccncc2)[nH]c2nc(Nc3c4c(cc5c3CCC5)CCC4)nn12`, 5.8 µM; as for `Cc1cc(=O)n2nc(Nc3c4c(cc5c3CCC5)CCC4)nc2n1C`, more than 40 µM.
The same measure, in the same setting: in the case of `COCCc1cc(=O)n2nc(Nc3c4c(cc5c3CCC5)CCC4)nc2[nH]1` it was 2.8 µM; in that of `CN1CCN(Cc2cc(=O)n3nc(Nc4c5c(cc6c4CCC6)CCC5)nc3[nH]2)CC1`, more than 40 µM; in that of `O=c1cc(C2CCCNC2)[nH]c2nc(Nc3c4c(cc5c3CCC5)CCC4)nn12` (stereo not drawn), more than 40 µM.
On the same count and under the same terms, in the case of `O=c1cc(Cc2cccc(Cl)c2)[nH]c2nc(Nc3c4c(cc5c3CCC5)CCC4)nn12` it was 2.8 µM.
As for `O=c1cc[nH]c2nc(Nc3c4c(cc5c3CCC5)CCC4)nn12`, the inhibition in [11] came out at 77%.
For the molecule `O=c1cc(Cc2ncccn2)[nH]c2nc(Nc3c4c(cc5c3CCC5)CCC4)nn12`, the IC50 in [1] (read-out: IC50) was found to be 1.7 µM.
`N#Cc1ccccc1Cc1cc(=O)n2nc(Nc3c4c(cc5c3CCC5)CCC4)nc2[nH]1`: the IC50 result in data set [1] (pbmc) was “Nd(Insoluble)”.
In the case of `Cc1[nH]c2nc(Nc3c4c(cc5c3CCC5)CCC4)nn2c(=O)c1Cc1ccccc1`, the IC50 in data set [1] (read-out: IC50) is more than 40 µM.
On the same count and under the same terms, as for `O=c1cc(Cc2ccccc2)[nH]c2nc(Nc3c4c(cc5c3CCC5)CCC4)nn12`, the figure is 1.8 µM; as for `O=c1cc(Cc2ccc(Cl)cc2)[nH]c2nc(Nc3c4c(cc5c3CCC5)CCC4)nn12`, 10 µM.
Still for that read-out and setting: as for `CN1CCC(c2cc(=O)n3nc(Nc4c5c(cc6c4CCC6)CCC5)nc3[nH]2)CC1`, the figure is more than 40 µM; as for `COc1ccc(Cc2cc(=O)n3nc(Nc4c5c(cc6c4CCC6)CCC5)nc3[nH]2)cc1`, 3 µM; as for `Cc1ccn2nc(Nc3c4c(cc5c3CCC5)CCC4)nc2n1`, more than 40 µM.
On the same count and under the same terms, as for `Cc1c[nH]c2nc(Nc3c4c(cc5c3CCC5)CCC4)nn2c1=O`, the figure is more than 40 µM.
Consider `O=c1cc(CC2CCOC2)[nH]c2nc(Nc3c4c(cc5c3CCC5)CCC4)nn12` (stereo not drawn), for which the IC50 in data set [1] (read-out: IC50) amounted to 5 µM.
On to `O=c1cc(Cc2ccccn2)[nH]c2nc(Nc3c4c(cc5c3CCC5)CCC4)nn12`, for which the IC50 in data set [3] and in [4] was more than 40 µM throughout. Also, in data set [6], the Papp at 4 h, 10 µM is less than 0.018 ×10⁻⁶ cm/s. Also, in data set [7], the fraction unbound is 0.002. For the same molecule, the solubility thermodynamic at 24 h in [9] is 2.4 µM (≈ 0.956 µg/mL).
`CN1CCOCC1Cc1cc(=O)n2nc(Nc3c4c(cc5c3CCC5)CCC4)nc2[nH]1` (stereo not drawn): the IC50 in data set [1] (read-out: IC50) came to 6 µM.
As to `O=c1cc(Cc2ccccc2Cl)[nH]c2nc(Nc3c4c(cc5c3CCC5)CCC4)nn12`, in data set [1] (pbmc), the IC50 result was “Nd(Insoluble)”.
With `O=c1cc(CC2CCOCC2)[nH]c2nc(Nc3c4c(cc5c3CCC5)CCC4)nn12`, the IC50 in [1] (read-out: IC50) came out at 3.4 µM.
Consider `Cc1cc(=O)n2nc(Nc3c4c(cc5c3CCC5)CCC4)nc2[nH]1`, for which, in data set [11], the inhibition was 70%.
